One may read the melting point as the temperature of the solid-liquid transition. What is called inhibition is the change of the read-out against control, counted positive when it falls.

The source of these data is US10344001B2, “Azolylacryloyl derivatives as therapeutic agents for sickle cell disease” (VIRGINIA COMMONWEALTH UNIVERSITY, priority 2015, dated 2019).

Data set [1] can be described thus: Reactivity toward free L-cysteine (UPLC-MS of compound and adduct). Conditions: incubated with L-Cys for 3 hours; for Ratio of Cpd/Adduct (Adduct peak): share of L-cysteine adduct peak; for Ratio of Cpd/Adduct (Compound peak): share of unreacted compound peak; for Reactivity with L-Cys (adduct share): values in text. The source says: The above synthesized KAUS compounds were expected to covalently bind to Hb through a Michael addition reaction with the βCys93 at the surface of the protein to effect their allosteric and antisickling activities. We therefore investigated L-Cys conjugates with KAUS-28, KAUS-29, KAUS-33, KAUS-38 and KAUS-39 with ECA as a positive control using UPLC-MS analysis as previously described^20 with an Acquity H-Class UPLC which is connected to a PDA detector and an Acquity TQD detector. The column used was an Acquity UPLC BEH C18 1.7 μm, 2.1×50 mm, with a Vanguard pre-column attached. Solvent A consisted of water with 0.02% formic acid, while solvent B consisted of 90:10 acetonitrile:water with 0.02% formic acid. A gradient run was performed such that solvent B was increased from 0% B to 100% B from time 0-5 mins, followed by 3 minute wash at 100% B and then a return and re-equilibration at 100% A in the next 4 mins. The flow rate was maintained at 0.5 ml/min throughout the run. 2 μL of sample was injected per run. […] The eluent was then introduced into the TQD detector. The TQD detector was set at positive ionization mode with a capillary voltage of 3.20 kV, cone voltage of 20 V, extractor voltage of 1 V, and RF lens voltage of 0.1 V. The source temperature was set at 150° C., while the desolvation temperature was set at 350° C. and the desolvation and cone gas flows were set at 650 and 50 L/hr respectively. Scans were made from 100-700 m/z with scan duration of 0.5 seconds to obtain mass spectra at different time points.

Data set [2] deals with T1, Hb in normal whole blood (Homo sapiens, UniProt P68871+P69905).
T1 construct: Normal whole blood was collected from adult donors at the Virginia Commonwealth University; endogenous in cells; host or cells: erythrocytes in normal adult human whole blood (hematocrit 20%)
T1 sequence (P69905 2-142 limits assumed): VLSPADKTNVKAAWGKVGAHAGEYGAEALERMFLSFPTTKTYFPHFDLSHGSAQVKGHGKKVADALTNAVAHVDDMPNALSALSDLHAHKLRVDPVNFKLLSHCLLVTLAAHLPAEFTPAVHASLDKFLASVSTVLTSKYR
T1 sequence (P68871 2-147 limits assumed): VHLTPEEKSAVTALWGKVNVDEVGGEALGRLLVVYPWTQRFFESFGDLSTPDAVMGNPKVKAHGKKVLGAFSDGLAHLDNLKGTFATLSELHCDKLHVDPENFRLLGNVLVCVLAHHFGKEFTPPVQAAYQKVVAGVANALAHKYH
Nature of the data set: Oxygen equilibrium curve (OEC) study in normal whole blood, multipoint tonometry. The note with it: hematocrit 20%, 1.5 h at 37° C. In kind it is cell-based. The source says:
(§1) De-identified, leftover EDTA venous blood samples from patients with SCD who visited The Children's Hospital of Philadelphia for routine clinic visits, were obtained after informed consent and used for antisickling study. Normal whole blood was collected from adult donors at the Virginia Commonwealth University after informed consent and used for oxygen equilibrium curve study. Hb was purified from discarded normal blood samples following published procedure and used for OEC study^34. The use of these human samples is in accordance with regulations of the IRB for Protection of Human Subjects.
The ability of the KAUS compounds to left-shift the OEC (stabilize the R-state and/or destabilize the T-state) and increase the oxygen affinity of Hb in normal whole blood or free human hemoglobin was determined by multipoint tonometry as previously reported^20. First, cell free normal human hemoglobin (1 mM) or normal whole blood (hematocrit of 20%) was incubated with 1 mM or 2 mM final test compound (KAUS-28, KAUS-29, KAUS-33, KAUS-38 or KAUS-39) for 1.5 h at 37° C. Following incubation, the mixture was equilibrated in a tonometer with oxygen tensions of 6, 20 and 60 mmHg for 10 min each, and pO2 (mmHg) and sO2 (%) values were measured thereafter using ABL 700 series automated blood gas analyzer (Radiometer America, Inc., Westlake, Ohio). The measured values of pO2 and sO2 at each oxygen tension level were then subjected to a non-linear regression analysis using the program Scientist (Micromath, Salt Lake City, Utah) to calculate P50 and the Hill coefficient (N) values. Time-dependent OEC studies (1 hr, 4 hr, 8 hr and 12 hr) were also performed for KAUS-28, KAUS-33, KAUS-38, and KAUS-39 at final compound concentration of 2 mM. ECA and the previously studied azolylacryloyl-carboxylate derivative, KAUS-15 were used as positive controls. Compounds were dissolved in DMSO to make 100-250 mM stock solutions, and DMSO was used in all control samples. All OEC studies were performed in duplicates.

Data set [3] concerns SS cells (sickle red blood cells). Briefly: RBC morphological antisickling study under hypoxic condition. In kind it is cell-based, human. Conditions: 2 mM compound, 1 hr under air, then 4% oxygen/96% nitrogen at 37° C. for 5 hrs; for inhibition at 2000 µM: Homo sapiens, Erythrocyte, read-out: Reduction (inhibition) of RBC sickling.
Source text: as §1
KAUS-38 and KAUS-39 at 2 mM concentrations were tested for their abilities to prevent RBC sickling under hypoxic condition following previously reported assay^20. Briefly SS cells were suspended in Hemox buffer (TCS Scientific Corp, Southampton, Pa.), pH 7.4, that contained 10 mM glucose and 0.2% bovine serum albumin. The solution was incubated under air in the absence (control) or presence of […] 2 mM concentration of test compound at 37° C. for 1 hr. Following, the suspension was incubated under hypoxic condition (4% oxygen/96% nitrogen) at 37° C. for 5 hrs. The suspension was fixed with 2% glutaraldehyde solution without exposure to air and then subjected to microscopic morphological analysis as previously reported […]

The target of data set [4] is T2, cell free normal human hemoglobin (Homo sapiens, UniProt P68871+P69905).
T2 construct: Hb was purified from discarded normal blood samples following published procedure and used for OEC study; from tissue; host or cells: discarded normal human blood samples
T2 sequence (P69905 2-142 limits assumed): as the sequence (P69905 2-142 limits assumed) above
T2 sequence (P68871 2-147 limits assumed): as the sequence (P68871 2-147 limits assumed) above
Briefly: Oxygen equilibrium curve (OEC) study with cell free hemoglobin, multipoint tonometry. In kind it is biochemical. The note with it: cell free normal human hemoglobin 1 mM; 1 mM or 2 mM compound.
Source text: as §1
The ability of the KAUS compounds to left-shift the OEC (stabilize the R-state and/or destabilize the T-state) and increase the oxygen affinity of Hb in normal whole blood or free human hemoglobin was determined by multipoint tonometry as previously reported^20. […] Following incubation, the mixture was equilibrated in a tonometer with oxygen tensions of 6, 20 and 60 mmHg for 10 min each, and pO2 (mmHg) and sO2 (%) values were measured thereafter using ABL 700 series automated blood gas analyzer (Radiometer America, Inc., Westlake, Ohio). The measured values of pO2 and sO2 at each oxygen tension level were then subjected to a non-linear regression analysis using the program Scientist (Micromath, Salt Lake City, Utah) to calculate P50 and the Hill coefficient (N) values. […]

Molecule `O=C(/C=C/c1ncc[nH]1)c1ccc(O)cc1` [KAUS-32, (E)-1-(4-hydroxyphenyl)-3-(1H-imidazol-2-yl)prop-2-en-1-one] yielded a melting point of 250 to 253 °C.

Take `O=C(/C=C/c1ncc[nH]1)c1ccccc1` [KAUS-28, (E)-3-(1H-imidazol-2-yl)-1-phenylprop-2-en-1-one]: in data set [1], the “Ratio of Cpd/Adduct (Adduct peak)” value turned out to be 6.9 and the “Ratio of Cpd/Adduct (Compound peak)” value was 93.1.

For the molecule `C=C(CC)C(=O)c1ccc(OCC(=O)O)c(Cl)c1Cl` [Ethacrynic Acid, ethacrynic acid, reference compound], in data set [1], the “Ratio of Cpd/Adduct (Adduct peak)” value was 96.3 and the “Ratio of Cpd/Adduct (Compound peak)” value was 3.7. The “OEC effect (increase of Hb affinity for oxygen, left shift)” value in data set [2] (1 mM compound) turned out to be 6.1%. In data set [2] (2 mM compound), the “OEC effect (increase of Hb affinity for oxygen, left shift)” value was 21.3%. Also, the inhibition at 2000 µM in data set [3] turned out to be 18%.

Consider `COc1cccc(C(=O)/C=C/c2ncc[nH]2)c1` [KAUS-29, (E)-3-(1H-imidazol-2-yl)-1-(3-methoxyphenyl)prop-2-en-1-one], for which the “Ratio of Cpd/Adduct (Adduct peak)” value in data set [1] is recorded as 2.1. For the same molecule, the “Ratio of Cpd/Adduct (Compound peak)” value in data set [1] was determined as 97.9. Further, the figures for the “OEC effect (increase of Hb affinity for oxygen, left shift)” value in data set [2] (1 mM compound) and in data set [2] (2 mM compound) were 8% and 14%, respectively.

`O=C(/C=C/c1ncc[nH]1)c1ccc(OC2CCCCO2)cc1` (stereo not shown) [KAUS-33, (E)-3-(1H-imidazol-2-yl)-1-(4-((tetrahydro-2H-pyran-2-yl)oxy)phenyl)prop-2-en-1-one]: in data set [1], the “Ratio of Cpd/Adduct (Adduct peak)” value was determined as 24.8, the “Ratio of Cpd/Adduct (Compound peak)” value amounted to 75.2 and the “Reactivity with L-Cys (adduct share)” value is on record as 24.8%. Moreover, the “OEC effect (increase of Hb affinity for oxygen, left shift)” value in data set [2] (1 mM compound) is given as 9.9%. In data set [2] (2 mM compound), the “OEC effect (increase of Hb affinity for oxygen, left shift)” value is on record as 16.5%.

Consider `O=C(/C=C/c1ncc[nH]1)c1ccc(OCc2ccccc2)cc1` [KAUS-34, (E)-1-(4-(benzyloxy)phenyl)-3-(1H-imidazol-2-yl)prop-2-en-1-one], for which the melting point was > 250 °C (dec.).

On to `COc1cc(C(=O)/C=C/c2ncc[nH]2)ccc1O` [KAUS-36, (E)-1-(4-hydroxy-3-methoxyphenyl)-3-(1H-imidazol-2-yl)prop-2-en-1-one], for which the melting point was > 250 °C (dec.).

As to `COc1ccc(C(=O)/C=C/c2ncc[nH]2)cc1` [KAUS-38, (E)-3-(1H-imidazol-2-yl)-1-(4-methoxyphenyl)prop-2-en-1-one], in data set [1], the “Ratio of Cpd/Adduct (Adduct peak)” value stood at 37.8, the “Ratio of Cpd/Adduct (Compound peak)” value is 62.2 and the “Reactivity with L-Cys (adduct share)” value stood at 37.8%. For the same molecule, the “OEC effect (increase of Hb affinity for oxygen, left shift)” value in data set [2] (1 mM compound) amounted to 8%. Further, the “OEC effect (increase of Hb affinity for oxygen, left shift)” value in data set [2] (2 mM compound) came to 14%. The inhibition at 2000 µM in data set [3] is 18%.

Regarding `O=C(O)CCCOc1ccc(C(=O)/C=C/c2ncc[nH]2)cc1Cl` [KAUS-15, reference compound], the “OEC effect (increase of Hb affinity for oxygen, left shift)” value in data set [2] (1 mM compound) came out at 1%; in data set [2] (2 mM compound), 7%. Further, the “Effect on Hb affinity for oxygen in cell free Hb (in words)” value in data set [4] is on record as “significantly more potent effect with cell free Hb than with whole blood”. In addition, the “Reduction (inhibition) of RBC sickling” value in data set [3] is on record as 6%.

For the molecule `COc1ccc(C(=O)/C=C/c2ncc[nH]2)cc1OC` [KAUS-39, (E)-1-(3,4-dimethoxyphenyl)-3-(1H-imidazol-2-yl)prop-2-en-1-one], the melting point was in the range of 222 to 223 °C. Also, in data set [1], the “Ratio of Cpd/Adduct (Adduct peak)” value came out at 27.2, the “Ratio of Cpd/Adduct (Compound peak)” value turned out to be 72.8 and the “Reactivity with L-Cys (adduct share)” value was determined as 27.2%. The inhibition at 2000 µM in data set [3] is 5%.
